Publication PMC7917437 (Journal of Medicinal Chemistry, 2021)

How the values were obtained:
CYP2B6 = assay: CYP induction, mRNA by qRT-PCR in cultured human hepatocytes; assay type: in vitro ADME; details: up to 30 μM, i.e., < 2-fold change and/or <20% of the positive control
[1] = test system: mouse, rat, monkey, and human hepatocyte incubations; assay: In vitro metabolism in hepatocyte incubations; assay type: in vitro ADME; details: HPLC and mass spectrometry
[2] = test system: chronic constriction injury model of neuropathy; assay: Chronic constriction injury model of neuropathy, von Frey assay; assay type: in vivo, male SD rats; details: AUC over 6 h post dose
LPS-induced mouse model = LPS-induced mouse model ref 38; cited from earlier work
clinical = details: both, human, plasma, oral
[3] = Phase 1a single ascending dose study in healthy volunteers
laminitis = details: cited from earlier work

SMILES	effect on CYP2B6 mRNA levels (CYP2B6)	putative metabolites detected [1]	efficacy compared with pregabalin ([2]; at 10–20 fold lower doses, vs pregabalin (30 mg/kg) p = 0.039)	pain measured with a von Frey assay (mechanical withdrawal thresholds) ([2]; male SD rats, oral gavage, 3 mg/kg, vs PEG 300 p ≤ 0.001)	neuroinflammation in the CNS (LPS-induced mouse model)	half-life (clinical) [h]	effective total AUC for a daily dosing regimen ([3]; calculated) [ng·h/mL]	absorption ([3]; human, single oral doses)	outcome in a laminitic horse scheduled for euthanasia (laminitis; after 5 days of treatment ref 49)	adverse effects from clinical exams and blood work (laminitis; horse, five-day treatment, once daily 0.1 mg/kg ref 49)	outcome in seven other laminitic horses (laminitis; when all other treatments failed ref 50)
CC[C@H](C)C(=O)N1CCC(NC(=O)Nc2ccc(OC(F)(F)F)c(F)c2)CC1 [EC5026, (S)-1-(3-Fluoro-4-(trifluoromethoxy)phenyl)-3-(1-(2-methylbutanoyl)piperidin-4-yl)urea]	little or no effect	seven	superior to pregabalin	blocked pain	prevent neuroinflammation	42 to 59	6	well absorbed with linear dose-proportionality			
O=C(Nc1ccc(OC(F)(F)F)cc1)N[C@H]1CC[C@H](Oc2ccc(C(=O)O)cc2)CC1 [t-TUCB, trans-4-{4-[3-(4-trifluoromethoxy-phenyl)-ureido]-cyclohexyloxy}-benzoic acid]									complete recovery with no recurrent laminitis	no signs of adverse effects	showed improvement in disease
